Laboratory results as given in the NIST ThermoML archive (doi:10.1021/je060490w).

Tests used:
[1] = for surface tension liquid-gas: Pendant drop shape; for mass density: 101.33 kPa, Liquid
[2] = xn = mol fraction of the nth substance listed; conditions: Pendant drop shape

Cc1cc(C)cc(C)c1 [1,3,5-trimethylbenzene]
[1]
Conditions | mass density [kg/m3] | surface tension liquid-gas [mN/m]
298.15 K | 861.12 | 28.05
308.15 K | 852.94 | 27.21
313.15 K | 848.82 | 26.78

Cc1cc(C)cc(C)c1 [1,3,5-trimethylbenzene] + CCOC(C)OCC
[2], x2 = 0
Conditions | surface tension liquid-gas [mN/m]
298.15 K | 28.05
308.15 K | 27.21
313.15 K | 26.78

Cc1cc(C)cc(C)c1 [1,3,5-trimethylbenzene] + COC(C)(C)OC
[2], x2 = 0
Conditions | surface tension liquid-gas [mN/m]
298.15 K | 28.05
308.15 K | 27.21
313.15 K | 26.78

COC(C)(C)OC [3,3-dimethyl-2,4-dioxapentane]
[1]
Conditions | mass density [kg/m3] | surface tension liquid-gas [mN/m]
298.15 K | 845.09 | 21.46
308.15 K | 834.41 | 20.43
313.15 K | 828.99 | 19.91

COC(C)(C)OC [3,3-dimethyl-2,4-dioxapentane] + Cc1cc(C)cc(C)c1
[2]
Conditions | surface tension liquid-gas [mN/m]
298.15 K, x1 = 0.05 | 27.6
298.15 K, x1 = 0.1002 | 27.14
298.15 K, x1 = 0.1494 | 26.72
298.15 K, x1 = 0.2001 | 26.28
298.15 K, x1 = 0.252 | 25.88
298.15 K, x1 = 0.3001 | 25.47
298.15 K, x1 = 0.3496 | 25.1
298.15 K, x1 = 0.3998 | 24.7
298.15 K, x1 = 0.4525 | 24.33
298.15 K, x1 = 0.4998 | 23.98
298.15 K, x1 = 0.5497 | 23.62
298.15 K, x1 = 0.5996 | 23.26
298.15 K, x1 = 0.6506 | 22.93
298.15 K, x1 = 0.7002 | 22.64
298.15 K, x1 = 0.7503 | 22.37
298.15 K, x1 = 0.7993 | 22.11
298.15 K, x1 = 0.8511 | 21.89
298.15 K, x1 = 0.8986 | 21.7
298.15 K, x1 = 0.9494 | 21.57
298.15 K, x1 = 1 | 21.46
308.15 K, x1 = 0.0562 | 26.65
308.15 K, x1 = 0.0995 | 26.21
308.15 K, x1 = 0.1481 | 25.77
308.15 K, x1 = 0.2023 | 25.29
308.15 K, x1 = 0.2502 | 24.87
308.15 K, x1 = 0.3002 | 24.49
308.15 K, x1 = 0.3497 | 24.06
308.15 K, x1 = 0.3982 | 23.71
308.15 K, x1 = 0.4499 | 23.31
308.15 K, x1 = 0.4964 | 22.95
308.15 K, x1 = 0.5493 | 22.54
308.15 K, x1 = 0.6001 | 22.17
308.15 K, x1 = 0.6502 | 21.85
308.15 K, x1 = 0.7006 | 21.52
308.15 K, x1 = 0.7454 | 21.27
308.15 K, x1 = 0.7999 | 20.99
308.15 K, x1 = 0.8492 | 20.74
308.15 K, x1 = 0.8998 | 20.57
308.15 K, x1 = 0.9492 | 20.48
308.15 K, x1 = 1 | 20.43
313.15 K, x1 = 0.0511 | 26.21
313.15 K, x1 = 0.1023 | 25.71
313.15 K, x1 = 0.1503 | 25.26
313.15 K, x1 = 0.2014 | 24.79
313.15 K, x1 = 0.2506 | 24.39
313.15 K, x1 = 0.3013 | 23.95
313.15 K, x1 = 0.3498 | 23.56
313.15 K, x1 = 0.396 | 23.19
313.15 K, x1 = 0.4486 | 22.77
313.15 K, x1 = 0.5014 | 22.36
313.15 K, x1 = 0.5508 | 21.99
313.15 K, x1 = 0.5931 | 21.68
313.15 K, x1 = 0.6488 | 21.31
313.15 K, x1 = 0.6988 | 20.99
313.15 K, x1 = 0.7499 | 20.66
313.15 K, x1 = 0.7994 | 20.4
313.15 K, x1 = 0.8388 | 20.24
313.15 K, x1 = 0.8976 | 20
313.15 K, x1 = 0.944 | 19.95
313.15 K, x1 = 1 | 19.91
